Data reported in ChEMBL document CHEMBL5696442, “Discovery of type II inhibitors of TGFβ-activated kinase 1 (TAK1) and mitogen-activated protein kinase kinase kinase kinase 2 (MAP4K2)” (J Med Chem, 2015).

How the values were obtained:
[1] = target: T1, Serine/threonine-protein kinase Chk1 (Homo sapiens) (UniProt O14757); experiment: Inhibition of CHK1 K2 labeling site in human Huh-7 cells at 10 uM by KiNativ Profiling analysis relative to control; type: cell-based
T1 sequence (whole entry): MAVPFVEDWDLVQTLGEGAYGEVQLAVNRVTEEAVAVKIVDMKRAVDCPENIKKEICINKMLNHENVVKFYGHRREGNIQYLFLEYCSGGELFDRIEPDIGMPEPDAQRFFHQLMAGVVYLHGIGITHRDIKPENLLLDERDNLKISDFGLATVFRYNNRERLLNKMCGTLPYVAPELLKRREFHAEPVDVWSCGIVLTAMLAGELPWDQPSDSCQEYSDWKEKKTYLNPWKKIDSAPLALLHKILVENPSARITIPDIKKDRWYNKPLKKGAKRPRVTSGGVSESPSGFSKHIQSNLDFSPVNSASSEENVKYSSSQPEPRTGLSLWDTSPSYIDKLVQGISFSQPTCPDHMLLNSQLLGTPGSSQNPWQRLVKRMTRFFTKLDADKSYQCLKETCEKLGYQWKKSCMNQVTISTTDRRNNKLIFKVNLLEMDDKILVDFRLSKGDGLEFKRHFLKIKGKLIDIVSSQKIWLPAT

[2] = target: Serine/threonine-protein kinase/endoribonuclease IRE1 (Homo sapiens) (UniProt O75460); experiment: Inhibition of IRE1 Lys2 labeling site in human A-375 cells at 5 uM by KiNativ Profiling analysis relative to control; type: cell-based
Serine/threonine-protein kinase/endoribonuclease IRE1 (Homo sapiens), sequence (O75460 19-977 limits assumed): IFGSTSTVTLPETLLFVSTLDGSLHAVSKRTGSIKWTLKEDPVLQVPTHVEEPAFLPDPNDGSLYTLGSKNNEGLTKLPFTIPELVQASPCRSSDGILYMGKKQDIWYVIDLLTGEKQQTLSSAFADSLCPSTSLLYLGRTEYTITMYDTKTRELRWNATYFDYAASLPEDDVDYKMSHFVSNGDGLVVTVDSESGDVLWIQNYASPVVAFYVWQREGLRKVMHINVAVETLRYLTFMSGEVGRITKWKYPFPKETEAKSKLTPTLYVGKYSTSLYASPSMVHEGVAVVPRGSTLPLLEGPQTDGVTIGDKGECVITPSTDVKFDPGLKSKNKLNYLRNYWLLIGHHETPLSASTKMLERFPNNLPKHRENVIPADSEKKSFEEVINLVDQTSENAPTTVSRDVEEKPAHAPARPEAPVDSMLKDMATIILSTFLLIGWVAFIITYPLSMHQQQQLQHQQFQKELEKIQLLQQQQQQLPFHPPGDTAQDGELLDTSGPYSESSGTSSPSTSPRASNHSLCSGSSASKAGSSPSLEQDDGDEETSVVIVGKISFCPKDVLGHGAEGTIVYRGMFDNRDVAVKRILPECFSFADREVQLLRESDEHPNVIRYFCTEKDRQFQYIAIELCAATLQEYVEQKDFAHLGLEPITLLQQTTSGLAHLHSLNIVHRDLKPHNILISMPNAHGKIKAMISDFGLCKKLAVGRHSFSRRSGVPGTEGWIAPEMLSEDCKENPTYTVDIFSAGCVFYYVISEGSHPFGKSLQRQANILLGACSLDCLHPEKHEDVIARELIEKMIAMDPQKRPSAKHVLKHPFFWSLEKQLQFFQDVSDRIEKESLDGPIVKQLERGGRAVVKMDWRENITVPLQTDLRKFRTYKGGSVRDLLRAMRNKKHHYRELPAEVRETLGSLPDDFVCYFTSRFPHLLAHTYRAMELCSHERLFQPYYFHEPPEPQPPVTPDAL

[3] = target: T2, Serine/threonine-protein kinase D1 (Homo sapiens) (UniProt Q15139); experiment: Inhibition of PKD1 Lys2 labeling site in human Huh-7 cell lysate at 1 uM by KiNativ Profiling analysis relative to control; type: subcellular
T2 sequence (whole entry): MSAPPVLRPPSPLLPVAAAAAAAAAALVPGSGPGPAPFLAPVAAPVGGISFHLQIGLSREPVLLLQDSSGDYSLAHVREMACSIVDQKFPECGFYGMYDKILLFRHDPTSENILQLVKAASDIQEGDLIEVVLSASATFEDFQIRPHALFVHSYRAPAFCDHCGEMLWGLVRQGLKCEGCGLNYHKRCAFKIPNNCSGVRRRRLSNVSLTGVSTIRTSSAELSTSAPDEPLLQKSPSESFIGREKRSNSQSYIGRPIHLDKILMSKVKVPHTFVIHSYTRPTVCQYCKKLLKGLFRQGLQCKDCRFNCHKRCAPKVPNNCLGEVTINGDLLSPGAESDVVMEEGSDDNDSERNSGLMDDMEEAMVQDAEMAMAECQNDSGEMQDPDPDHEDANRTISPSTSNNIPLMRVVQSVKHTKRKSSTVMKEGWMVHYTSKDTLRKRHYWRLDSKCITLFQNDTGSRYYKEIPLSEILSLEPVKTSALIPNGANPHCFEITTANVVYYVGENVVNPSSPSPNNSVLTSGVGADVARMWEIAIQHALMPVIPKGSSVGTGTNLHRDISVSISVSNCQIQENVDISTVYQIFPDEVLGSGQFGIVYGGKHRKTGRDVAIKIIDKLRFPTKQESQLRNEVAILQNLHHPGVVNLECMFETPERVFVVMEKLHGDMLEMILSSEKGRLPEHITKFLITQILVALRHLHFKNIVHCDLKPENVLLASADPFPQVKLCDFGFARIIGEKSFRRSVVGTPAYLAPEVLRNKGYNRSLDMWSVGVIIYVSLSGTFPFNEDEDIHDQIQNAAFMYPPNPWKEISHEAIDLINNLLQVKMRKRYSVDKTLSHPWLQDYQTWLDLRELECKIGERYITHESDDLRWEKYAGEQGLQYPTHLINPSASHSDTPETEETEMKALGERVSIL

[4] = target: T3, Serine/threonine-protein kinase TBK1 (Homo sapiens) (UniProt Q9UHD2); experiment: Inhibition of TBK1 Lys2 labeling site in human Huh-7 cells at 1 uM by KiNativ Profiling analysis relative to control; type: cell-based
T3 sequence (whole entry): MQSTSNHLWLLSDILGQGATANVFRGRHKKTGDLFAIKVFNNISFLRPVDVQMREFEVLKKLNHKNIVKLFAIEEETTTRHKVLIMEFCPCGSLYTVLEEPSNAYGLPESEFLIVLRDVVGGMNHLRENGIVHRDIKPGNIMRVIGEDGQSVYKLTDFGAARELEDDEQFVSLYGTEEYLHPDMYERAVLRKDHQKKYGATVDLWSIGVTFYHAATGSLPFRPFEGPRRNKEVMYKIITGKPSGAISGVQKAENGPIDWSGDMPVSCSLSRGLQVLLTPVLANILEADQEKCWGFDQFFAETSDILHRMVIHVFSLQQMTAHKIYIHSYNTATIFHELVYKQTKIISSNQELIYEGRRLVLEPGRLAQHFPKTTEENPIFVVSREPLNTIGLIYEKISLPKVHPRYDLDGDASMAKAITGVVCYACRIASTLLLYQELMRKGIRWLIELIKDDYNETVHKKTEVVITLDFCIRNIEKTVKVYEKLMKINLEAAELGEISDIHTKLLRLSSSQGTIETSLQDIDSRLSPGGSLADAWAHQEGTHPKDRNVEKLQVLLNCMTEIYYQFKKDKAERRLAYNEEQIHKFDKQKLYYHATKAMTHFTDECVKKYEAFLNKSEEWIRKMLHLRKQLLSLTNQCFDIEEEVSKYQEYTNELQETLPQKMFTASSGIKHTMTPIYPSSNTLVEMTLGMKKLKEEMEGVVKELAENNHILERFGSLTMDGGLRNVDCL

Compound	inhibition [1] [%]	inhibition [2] [%]	inhibition [3] [%]	inhibition [4] [%]
CCN1CCN(Cc2ccc(NC(=O)c3ccc(C)c(Oc4ccnc5[nH]ccc45)c3)cc2C(F)(F)F)CC1	3.5	-5.7		
CNc1cc(Oc2cc(C(=O)Nc3cc(N4CCN(C)CC4)cc(C(F)(F)F)c3)ccc2C)ncn1			-3.5	17.7
